Experimental data: patent publication EP0552142B2, “T CELL RECEPTOR PEPTIDES AS THERAPEUTICS FOR AUTOIMMUNE AND MALIGNANT DISEASE” (priority 1989, dated 1991)
Ends that are not written are not given here.

System: EAE
Design: species or system New Zealand white rabbits
Details: rabbit, in vivo
Protocol: The emulsion was injected SC in multiple sites in the dorsal area of the neck and the tail. Rabbits were immunized either with the free peptide or with peptide conjugated to KLH. […] All rabbits were bled via the ear vein after they were placed in restraining cages and tranquilized with ace-promozine. To prevent hypovolemia, the amount of blood removed was replaced with sterile saline. Sera from individual rats or rabbits were prepared from clotted blood by centrifugation. All sera were decomplemented for 30 minutes at 56°C and frozen in small aliquots to which sodium azide was added.

Clinical Signs of EAE: None
Sequence: DMGHGLRLIHYSYDVNSTEKG [TCR Vβ8(39-59)]
